From patent US20150119352A1, “DINUCELOSIDE POLYPHOSPHATES FOR THE TREATMENT OF PAIN” (GlobalAcorn Ltd., priority 2012, published 2015)
Like-named read-outs stand apart in the source and are kept apart here.

How the values were obtained:
[1] = molecular target: T1, rat homomeric P2X3 receptors (Rattus norvegicus, UniProt P49654); test: Whole-cell patch clamp on HEK cells expressing rat homomeric P2X3 receptors; format: cell-based; settings: for depression of P2X3 current: 1 μM; for nH of the activation dose-response curve: activation of P2X3 receptors
T1 construct: transfected with rat full-length P2X3 cDNA subcloned into pIRES2-EGFP; expressed in transfected cells; host or cells: HEK293T
T1 sequence (P49654 1-397): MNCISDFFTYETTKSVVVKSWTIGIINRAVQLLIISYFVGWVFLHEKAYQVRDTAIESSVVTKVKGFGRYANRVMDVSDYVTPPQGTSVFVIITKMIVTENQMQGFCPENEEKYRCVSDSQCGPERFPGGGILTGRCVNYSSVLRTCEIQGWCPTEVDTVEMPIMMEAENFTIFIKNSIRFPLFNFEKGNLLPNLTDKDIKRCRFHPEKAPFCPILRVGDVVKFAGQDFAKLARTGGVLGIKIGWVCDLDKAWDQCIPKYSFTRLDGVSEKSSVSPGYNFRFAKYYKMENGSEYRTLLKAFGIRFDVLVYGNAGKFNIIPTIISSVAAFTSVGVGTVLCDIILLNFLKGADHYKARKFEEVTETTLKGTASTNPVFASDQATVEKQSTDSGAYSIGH
Method: (§1) Rat trigeminal (TG), nodose (NG) or dorsal root ganglion (DRG) neurons in culture were prepared as described previously (Sokolova et al., 2001; Simonetti et al., 2006). Neurons were plated on poly-L-lysine (0.2 mg/mL)-coated Petri dishes and cultured for 1 to 2 days under an atmosphere containing 5% CO2. Cells were used within 2 days of plating when they lacked processes. HEK293T cells were prepared as reported previously (Fabbretti et al., 2004; Sokolova et al., 2004) and transfected with rat full-length P2X3 cDNA subcloned into pIRES2-EGFP (Clontech, Mountain View, Calif., USA).
(§2) Trigeminal, nodose, DRG neurons or HEK cells were recorded in the whole-cell configuration while being continuously superfused (at 2 mL/min) with control solution containing (in mM): 152 NaCl, 5 KCl, 1 MgCl2, 2 CaCl2, 10 glucose, and 10 HEPES; pH was adjusted to 7.4 with NaOH and osmolarity was adjusted to 320 mOsM with glucose. […] Responses to selective P2X3 receptor agonist α,β-methylene-ATP (α,β-meATP; resistant to ectoATPase hydrolysis, Sigma-Aldrich) were measured using an EPC-9 amplifier and HEKA Patch Master software (HEKA Electronik, Germany). Cells were voltage-clamped at −70 mV. In most cells, series resistance was compensated by 80%. To determine half effective concentration of agonist (EC50), dose-response curves for α,β-meATP were constructed by applying different agonist doses to the same cells and fitting them with a logistic equation (Origin 8.0, Microcal, Northampton, Mass.).
Agonists and antagonists were applied, usually for 2 sec, via a rapid superfusion system (Rapid Solution Changer RSC-200; BioLogic Science Instruments, Grenoble, France) placed 100 to 150 μm near the cell. The time for the solution exchange across the cell was approximately 30 ms, as judged with liquid junction potential measurements. All chemicals, including enzymes for cell culture, were from Sigma (St. Louis, Mo.). Culture media were obtained from Invitrogen (Milan, Italy).
The peak amplitudes of the responses were measured using HEKA Patch Master software. For each agonist, dose-response plots were constructed by normalizing data with respect to the maximum response. All data are presented as mean±S.E.M. (n=the number of cells) with statistical significance assessed by paired t-test (for parametric data) or Mann-Whitney rank sum test (for non-parametric data). Best fits of data with a sigmoid function were compared with respective control fits using Origin 8.0 software. A value of P<0.05 was accepted as indicative of statistically significant difference.
The inhibitory (suppressive) potencies of AppNHppA and AppCH2ppA via high affinity desensitization (HAD) were evaluated. The inventors applied both synthetic analogues in different experiments during rhythmic 2 s long (2 […]) activations of P2X3 receptors using 10 μM α,β-meATP (for protocol see FIG. 2 top).

[2] = molecular target: T2, native P2X3 receptors, trigeminal ganglia (TG) neurons (Rattus norvegicus, UniProt P49654); test: α,β-meATP-induced currents in cultured trigeminal ganglia neurons; format: cell-based; settings: read-out: inhibition (suppression) of the peak current
T2 construct: Modulation of Native P2X3 Receptors in Rat Cultured Sensory Neurons; endogenous in cells; host or cells: primary cultured rat trigeminal ganglion and dorsal root ganglion neurons
T2 sequence (P49654 1-397): T1 sequence (P49654 1-397)
Method: as §1
as §2, with “To determine half effective concentration of agonist (EC50), dose-response curves for α,β-meATP were constructed by applying different agonist doses to the same cells and fitting them with a logistic equation (Origin 8.0, Microcal, Northampton, Mass.).” left out
(§3) The peak amplitudes of the responses were measured using HEKA Patch Master software. […]

[3] = system: native P2X3 receptors, trigeminal ganglia (TG) neurons; test: as above; format: cell-based, rat; settings: 1 μM, TG neurons
Method: as §1
as §2, with “To determine half effective concentration of agonist (EC50), dose-response curves for α,β-meATP were constructed by applying different agonist doses to the same cells and fitting them with a logistic equation (Origin 8.0, Microcal, Northampton, Mass.).” left out
as §3

Row | Structure (SMILES) | depression of P2X3 current ([1]; α,β-meATP pulses every 30 s (high rate)) | depression of P2X3 current ([1]; α,β-meATP pulses every 2 min (low rate)) | nH of the activation dose-response curve [1] | EC50 ([1]; agonist applied for 2 s, read-out: EC50 for activation of P2X3 mediated currents) | IC50 ([1]; test pulses of 10 μM α,β-meATP every 2 min, measured 6 min after drug application, read-out: IC50 for inhibition of P2X3 mediated currents) | EC50 [1] | IC50 [1] | amplitude of the following α,β-meATP response ([1]; 10 nM applied for 6 min) | inhibition (suppression) of test responses ([1]; 3 μM) | induction of membrane currents ([1]; 0.1 or 1 μM) | induction of membrane currents ([1]; 10 or 100 μM) | remaining activity at 0.1 µM ([1]; HEK293, read-out: test responses reduced to (% of control)) | current response as % of the response induced by 10 μM of α,β-meATP ([1]; saturating 1 mM concentration, same cell) | inhibition at 1 µM [2] | inhibition of sustained residual component [3]
1 | Nc1ncnc2c1ncn2[C@@H]1O[C@H](COP(=O)(O)OP(=O)(O)CP(=O)(O)OP(=O)(O)OC[C@H]2O[C@@H](n3cnc4c(N)ncnc43)C(O)C2O)C(O)C1O (stereo in doubt) [AppCH2ppA] | 81±3% | 61.3±5% | 2.27±0.56 | 9.3 ± 1.7 µM | 0.55 ± 0.2 µM | – | – | – | – | – | – | – | – | – | –
2 | Nc1ncnc2c1ncn2[C@@H]1O[C@H](COP(=O)(O)OP(=O)(O)NP(=O)(O)OP(=O)(O)OC[C@H]2O[C@@H](n3cnc4c(N)ncnc43)C(O)C2O)C(O)C1O (stereo in doubt) [AppNHppA] | – | – | 1.58±0.05 | – | – | 41.6 ± 1.3 µM | 0.2 ± 0.04 µM | almost unchanged | strong (almost full) inhibition | not to induce membrane currents | small and slowly desensitizing currents | 38.2 ± 8.5% | 41.2±13% | 80.3 ± 4.4% | 15±6%
